Common to all, as to type: cell-based
In test [1] the test system is pFGFR4 in MDA-MB-453 cells. The test is described as follows: Washout experiment (duration of action on pFGFR4). The settings on record: 1000-2000 nM for 1 hr, washed, up to 24 hr. As for the experimental part: The cells were allowed to settle down for 4 hrs and were then maintained in low-serum (0.1% FBS) media overnight.
The following morning, the media was removed and the cells were treated with 1000-2000 nM of test compound in low-serum media for 1 hr. The cells were washed free of test compound (3×) with PBS (Invitrogen). One set of cells was immediately lysed as indicated above as the 0 hr time point. The remaining cells were incubated with the appropriate complete growth media (10-20% FBS) for 1, 2, 4, 8, 16 (in certain circumstances) and 24 hr. DMSO (0.5%) controls were collected at all time points.

The test system of test [2] is pFGFR4 in MDA-MB-453 cells. In words: FGFR4 signaling, pFGFR4 (MDA); Western blot (Method A), MSD (Method B), ELISA (Method C). Particulars: Homo sapiens.
The test system of the next test is pFGFR4 in Huh7 cells. In words: FGFR4 signaling, pFGFR4 (Huh); MSD (Method B). Particulars: Homo sapiens.
The mark [3] stands for this setting: MDA-MB-453 cells, Method B (MSD) for signaling EC50 determination.
Setting [4] is: Huh-7, Huh7 cells, read-out: Signaling EC50 (nM) pFGFR4 (Huh).

Entries after “also recorded” stand apart in the source; their conditions may differ. Like-named read-outs stand apart in the source and are kept apart here.

Take `C=CC(=O)Nc1ccccc1Nc1ncc2c(n1)N(Cc1cccc(NC(=O)CC)c1)C(=O)N(c1c(Cl)c(OC)cc(OC)c1Cl)C2` [Compound I-1]: the “duration of action against pFGFR4 signalling post washout” value (“duration of action” for short) in test [1] is reported as “prolonged duration of action; also recorded: has PDA”. For the same molecule, the EC50 (in test [2] (setting [3]); in the test on pFGFR4 in Huh7 cells (setting [4])) was less than 100 nM throughout.
For `C=CC(=O)NC1CCCCC1Nc1ncc2c(n1)N(Cc1cscn1)C(=O)N(c1c(Cl)c(OC)cc(OC)c1Cl)C2` (racemic) [Compound I-69], the “duration of action” value in test [1] is “prolonged inhibition of autophosphorylation of FGFR4; also recorded: prolonged duration of action”. The EC50 is less than 100 nM in test [2] (setting [3]) and 101 to 500 nM in the test on pFGFR4 in Huh7 cells (Huh-7, read-out: Signaling EC50 (nM) pFGFR4 (Huh)).
Consider `CCC(=O)Nc1cccc(CN2C(=O)N(c3c(Cl)c(OC)cc(OC)c3Cl)Cc3cnc(Nc4ccccc4NC(=O)CC)nc32)c1` [Compound I-234], for which the “duration of action” value in test [1] is “does not show prolonged duration of action; also recorded: does not have PDA”. In test [2] (MDA-MB-453 cells, Method A (Western blot) for signaling EC50 determination), this molecule displayed an EC50 of 101 to 500 nM.
On to `C=CC(=O)N[C@H]1COC[C@H]1Nc1ncc2c(n1)N(C)C(=O)N(c1c(Cl)c(OC)cc(OC)c1Cl)C2` [Compound I-186], for which the EC50 in test [2] (MDA-MB-453, MDA-MB-453 cells, Method B (MSD) for signaling EC50 determination) is less than 100 nM; with pFGFR4 in Huh7 cells (setting [4]) it was less than 100 nM.
`C=CC(=O)Nc1ccccc1Nc1ncc2c(n1)N(Cc1cccc(C(N)=O)c1)C(=O)N(c1cc(OC)cc(OC)c1)C2` [Compound I-97]: the EC50 (in test [2] (setting [3]); with pFGFR4 in Huh7 cells (setting [4])) was 101 to 500 nM each time.
As to `C=CC(=O)Nc1ccccc1Nc1ncc2c(n1)N(Cc1ccnc(N)c1)C(=O)N(c1cc(OC)cc(OC)c1)C2` [Compound I-87], the EC50 (in test [2] (setting [3]); with pFGFR4 in Huh7 cells (setting [4])) was less than 100 nM in each case.

These data come from patent publication US10774052B2, “Heteroaryl compounds and uses thereof” (Celgene CAR LLC, priority 2013, dated 2020).
